The text below walks through data of ChEMBL document CHEMBL1201862, “PubChem BioAssay data set” (2004).

Experiment [1] concerns the target T1, Sentrin-specific protease 8 (Homo sapiens, UniProt Q96LD8).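 Further: luminescence read-out of SENP8 inhibition, dose-response confirmation following an ultra-high-throughput screen.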
T1 sequence (Q96LD8 whole entry): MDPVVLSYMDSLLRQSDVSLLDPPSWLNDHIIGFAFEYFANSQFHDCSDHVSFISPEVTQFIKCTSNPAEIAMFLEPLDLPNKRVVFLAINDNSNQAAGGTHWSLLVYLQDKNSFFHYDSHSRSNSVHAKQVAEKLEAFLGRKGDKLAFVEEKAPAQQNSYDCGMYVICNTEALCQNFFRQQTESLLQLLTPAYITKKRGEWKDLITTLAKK
The format is functional.

The target in experiment [2] is T2, Sentrin-specific protease 6 (Homo sapiens, UniProt Q9GZR1).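 Further: Luminescence-based dose-response confirmatory assay of SENP6 inhibition, following up an ultra-high-throughput screen.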
T2 sequence (Q9GZR1 whole entry): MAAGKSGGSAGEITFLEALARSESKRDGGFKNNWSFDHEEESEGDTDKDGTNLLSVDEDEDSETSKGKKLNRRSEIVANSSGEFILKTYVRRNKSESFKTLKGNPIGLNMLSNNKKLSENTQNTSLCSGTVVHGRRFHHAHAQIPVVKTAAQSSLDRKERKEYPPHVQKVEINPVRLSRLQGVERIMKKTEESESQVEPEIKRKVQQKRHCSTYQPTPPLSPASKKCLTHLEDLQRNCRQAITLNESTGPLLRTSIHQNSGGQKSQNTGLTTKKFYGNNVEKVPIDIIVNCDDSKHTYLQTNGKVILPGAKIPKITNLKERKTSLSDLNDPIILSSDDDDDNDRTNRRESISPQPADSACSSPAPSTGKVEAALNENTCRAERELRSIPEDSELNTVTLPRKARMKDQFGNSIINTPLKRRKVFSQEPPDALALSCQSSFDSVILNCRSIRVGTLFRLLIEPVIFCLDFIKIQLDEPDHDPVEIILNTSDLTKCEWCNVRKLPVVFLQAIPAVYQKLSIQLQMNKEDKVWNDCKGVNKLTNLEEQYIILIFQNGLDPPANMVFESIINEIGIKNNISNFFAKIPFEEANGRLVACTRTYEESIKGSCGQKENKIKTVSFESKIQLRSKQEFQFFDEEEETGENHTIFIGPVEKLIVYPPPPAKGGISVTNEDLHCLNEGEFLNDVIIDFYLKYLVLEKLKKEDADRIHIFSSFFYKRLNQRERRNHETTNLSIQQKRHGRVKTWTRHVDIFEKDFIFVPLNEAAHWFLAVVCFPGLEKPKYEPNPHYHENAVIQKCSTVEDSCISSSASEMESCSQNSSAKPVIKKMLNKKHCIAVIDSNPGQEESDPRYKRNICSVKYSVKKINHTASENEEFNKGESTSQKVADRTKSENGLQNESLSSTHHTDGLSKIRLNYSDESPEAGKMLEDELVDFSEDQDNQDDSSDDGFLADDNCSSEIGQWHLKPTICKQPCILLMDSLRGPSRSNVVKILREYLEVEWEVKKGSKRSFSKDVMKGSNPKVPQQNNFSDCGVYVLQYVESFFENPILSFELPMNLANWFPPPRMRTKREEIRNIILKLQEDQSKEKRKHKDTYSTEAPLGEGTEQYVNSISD
The format is functional.

The next experiment has as its target T3, Caspase-3 (Homo sapiens, UniProt P42574).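 Further: Dose-response selectivity test against caspase-3 for candidate inhibitors of sentrin-specific proteases (SENPs).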
T3 sequence (P42574 whole entry): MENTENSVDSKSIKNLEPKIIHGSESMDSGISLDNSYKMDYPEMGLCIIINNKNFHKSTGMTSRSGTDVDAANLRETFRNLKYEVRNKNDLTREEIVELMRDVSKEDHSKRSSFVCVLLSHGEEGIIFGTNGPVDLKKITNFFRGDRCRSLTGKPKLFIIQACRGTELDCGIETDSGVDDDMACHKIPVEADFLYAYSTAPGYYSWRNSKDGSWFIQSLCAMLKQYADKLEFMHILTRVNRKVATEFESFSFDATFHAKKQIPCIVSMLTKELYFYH
The format is functional.

Experiment [3] addresses T4, Sentrin-specific protease 7 (Homo sapiens, UniProt Q9BQF6).
T4 sequence (Q9BQF6 whole entry): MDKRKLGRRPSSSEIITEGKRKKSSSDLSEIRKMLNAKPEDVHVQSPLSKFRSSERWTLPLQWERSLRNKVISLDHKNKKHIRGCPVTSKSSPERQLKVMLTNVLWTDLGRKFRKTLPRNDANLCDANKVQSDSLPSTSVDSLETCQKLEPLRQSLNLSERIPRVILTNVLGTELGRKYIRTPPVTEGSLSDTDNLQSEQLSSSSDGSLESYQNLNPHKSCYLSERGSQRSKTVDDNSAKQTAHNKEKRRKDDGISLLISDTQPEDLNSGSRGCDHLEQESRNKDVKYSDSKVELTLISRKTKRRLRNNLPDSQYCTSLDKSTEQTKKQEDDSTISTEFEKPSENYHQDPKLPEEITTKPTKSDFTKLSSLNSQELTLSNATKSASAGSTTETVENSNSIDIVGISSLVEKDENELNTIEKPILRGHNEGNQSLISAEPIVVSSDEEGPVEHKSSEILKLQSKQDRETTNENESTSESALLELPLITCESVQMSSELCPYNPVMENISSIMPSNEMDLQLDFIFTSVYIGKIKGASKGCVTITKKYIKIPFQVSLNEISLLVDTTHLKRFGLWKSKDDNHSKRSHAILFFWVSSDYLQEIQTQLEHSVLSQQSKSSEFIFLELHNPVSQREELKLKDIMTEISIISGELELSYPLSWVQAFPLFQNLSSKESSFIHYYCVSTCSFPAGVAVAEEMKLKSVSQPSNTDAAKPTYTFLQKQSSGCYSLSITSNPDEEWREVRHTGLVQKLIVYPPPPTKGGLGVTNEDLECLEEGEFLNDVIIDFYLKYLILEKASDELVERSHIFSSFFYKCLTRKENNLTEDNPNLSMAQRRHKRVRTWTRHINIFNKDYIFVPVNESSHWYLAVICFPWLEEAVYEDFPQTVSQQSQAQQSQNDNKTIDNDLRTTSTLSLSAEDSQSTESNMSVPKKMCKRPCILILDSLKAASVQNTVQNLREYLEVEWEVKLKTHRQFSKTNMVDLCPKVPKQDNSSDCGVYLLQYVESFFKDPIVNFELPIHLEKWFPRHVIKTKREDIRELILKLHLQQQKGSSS
The format is functional.

For experiment [4], the target named is T5, Oxysterols receptor LXR-beta (Homo sapiens, UniProt P55055).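 Further: agonist activity at LXR measured by a cell-based luminescence readout across a dose range, run as a counterscreen for daf-12 agonists; HEK293 cells with Gal4-LXR fusion and GAL4-driven luciferase reporter; potency for activation of Gal4-LXR reporter so compounds are agonists.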
T5 sequence (P55055 whole entry): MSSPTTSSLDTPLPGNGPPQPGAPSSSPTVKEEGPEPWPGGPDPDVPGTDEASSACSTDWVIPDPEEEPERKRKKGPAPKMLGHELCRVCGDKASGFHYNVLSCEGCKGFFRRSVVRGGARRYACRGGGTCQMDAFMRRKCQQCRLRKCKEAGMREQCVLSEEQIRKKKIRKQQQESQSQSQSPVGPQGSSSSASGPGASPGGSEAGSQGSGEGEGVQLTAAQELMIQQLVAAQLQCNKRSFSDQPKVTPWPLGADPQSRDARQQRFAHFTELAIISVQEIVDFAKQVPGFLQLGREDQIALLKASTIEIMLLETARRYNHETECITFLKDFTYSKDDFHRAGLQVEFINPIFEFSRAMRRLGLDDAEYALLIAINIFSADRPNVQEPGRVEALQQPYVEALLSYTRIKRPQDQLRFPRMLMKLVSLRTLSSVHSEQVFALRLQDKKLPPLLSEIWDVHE
Type of experiment: functional, cell-based.

Experiment [5] has as its target T6, Endoribonuclease toxin MazF (Escherichia coli K-12, UniProt P0AE70).
T6 sequence (P0AE70 whole entry): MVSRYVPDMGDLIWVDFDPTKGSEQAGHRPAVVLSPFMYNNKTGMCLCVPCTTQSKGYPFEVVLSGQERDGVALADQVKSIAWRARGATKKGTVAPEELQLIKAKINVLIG
The experiment is described as follows: substrate-only fluorescence increase artefacts – biochemical, single-stranded RNase substrate, counter-screen for MazEF activator project, dose response (AID 588502). Type of experiment: functional. In general terms: A counterscreen serves to expose hits that act by an unwanted route or on another target.

The target in experiment [6] is T6, Endoribonuclease toxin MazF. The experiment is described as follows: activation of MazEF endoribonuclease cleavage – biochemical, fluorescence, single-stranded RNA substrate, uHTS hits, dose response (AID 588481). The format is functional.
Experiment [7] addresses T7, Corticotropin-releasing factor receptor 2/Corticotropin-releasing factor-binding protein (Homo sapiens, UniProt P24387+Q13324).
T7 sequence (Q13324 whole entry): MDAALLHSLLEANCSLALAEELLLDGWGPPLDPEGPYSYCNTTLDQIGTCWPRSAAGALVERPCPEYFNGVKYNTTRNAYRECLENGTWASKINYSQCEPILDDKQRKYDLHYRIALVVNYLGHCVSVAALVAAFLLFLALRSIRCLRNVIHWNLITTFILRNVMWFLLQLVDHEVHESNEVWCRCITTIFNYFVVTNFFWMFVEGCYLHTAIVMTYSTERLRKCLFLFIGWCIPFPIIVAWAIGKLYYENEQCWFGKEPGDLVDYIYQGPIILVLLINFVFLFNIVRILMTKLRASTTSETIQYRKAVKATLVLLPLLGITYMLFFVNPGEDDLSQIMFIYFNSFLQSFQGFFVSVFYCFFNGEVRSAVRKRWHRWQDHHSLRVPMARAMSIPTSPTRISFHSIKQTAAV
T7 sequence (P24387 whole entry): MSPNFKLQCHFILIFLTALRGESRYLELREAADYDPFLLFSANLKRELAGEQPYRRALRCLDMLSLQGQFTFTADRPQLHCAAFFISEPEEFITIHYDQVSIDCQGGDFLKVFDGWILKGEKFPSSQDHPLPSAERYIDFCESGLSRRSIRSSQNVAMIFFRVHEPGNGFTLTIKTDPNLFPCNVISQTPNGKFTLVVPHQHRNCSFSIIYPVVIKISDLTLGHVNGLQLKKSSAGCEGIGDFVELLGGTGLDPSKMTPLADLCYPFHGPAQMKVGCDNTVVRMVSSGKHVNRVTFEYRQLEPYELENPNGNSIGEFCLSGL
As to the kind of experiment: activators of CRF receptor 2 with binding protein – uHTS hits, confirmation (AID 602473). The following applies: read-out: EC50_Mean. Type of experiment: functional.

The subject of the next experiment is HEK293. The experiment is described as follows: EBV LMP1 TES2 canonical NF-kB signalling blockers – cell-based, HEK293, luciferase, cherry-pick, dose response (AID 588343). Type of experiment: functional. The following applies: Homo sapiens.
In experiment [8] the target is T8, Short transient receptor potential channel 4 (Mus musculus, UniProt Q9QUQ5).
T8 sequence (Q9QUQ5 whole entry): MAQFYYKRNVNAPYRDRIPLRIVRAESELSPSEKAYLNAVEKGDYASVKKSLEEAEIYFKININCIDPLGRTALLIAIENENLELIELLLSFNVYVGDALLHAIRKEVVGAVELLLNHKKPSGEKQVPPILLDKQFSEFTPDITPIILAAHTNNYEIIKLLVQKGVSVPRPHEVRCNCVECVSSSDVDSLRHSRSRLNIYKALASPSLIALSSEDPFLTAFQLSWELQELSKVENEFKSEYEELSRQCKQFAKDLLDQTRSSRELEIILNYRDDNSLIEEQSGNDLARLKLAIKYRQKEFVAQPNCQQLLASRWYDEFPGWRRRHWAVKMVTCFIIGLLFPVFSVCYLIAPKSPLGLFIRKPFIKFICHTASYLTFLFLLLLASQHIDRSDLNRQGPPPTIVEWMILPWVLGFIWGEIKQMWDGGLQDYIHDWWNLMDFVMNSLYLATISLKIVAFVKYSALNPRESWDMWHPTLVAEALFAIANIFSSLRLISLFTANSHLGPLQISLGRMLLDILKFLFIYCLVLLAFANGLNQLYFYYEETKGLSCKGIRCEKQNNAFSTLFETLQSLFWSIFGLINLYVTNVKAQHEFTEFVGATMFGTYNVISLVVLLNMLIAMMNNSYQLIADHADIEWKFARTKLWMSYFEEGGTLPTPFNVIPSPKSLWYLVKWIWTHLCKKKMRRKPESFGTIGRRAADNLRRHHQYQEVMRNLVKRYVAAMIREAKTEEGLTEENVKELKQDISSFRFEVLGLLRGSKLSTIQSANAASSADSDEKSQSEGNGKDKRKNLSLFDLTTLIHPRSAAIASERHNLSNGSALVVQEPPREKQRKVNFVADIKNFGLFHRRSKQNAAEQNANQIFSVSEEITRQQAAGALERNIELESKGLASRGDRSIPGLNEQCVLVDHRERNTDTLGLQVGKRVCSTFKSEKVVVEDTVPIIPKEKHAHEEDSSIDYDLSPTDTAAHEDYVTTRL
The experiment is described as follows: block of DAMGO-driven TRPC4 calcium entry – cell-based, HEK293 TRPC4/mu-opioid, Fluo-4 calcium, dose response (AID 434942).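 Further: potency of inhibitors blocking the TRPC4 calcium response.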 Type of experiment: functional.

Active and inactive are the calls of the source.

In the case of `Cc1c(C(=O)Nc2ccccc2)csc1-c1ccccc1`, the IC50 (in general, the midpoint of a concentration-inhibition curve) is 7.47 µM (active) in [1], 6.64 µM (active) in experiment [2], 19.3 µM (active) on Caspase-3 and 8.96 µM (active) in experiment [3]. In [4], the EC50 is > 67.5 µM (inactive).
As to `CCN(CC)S(=O)(=O)c1ccc2oc(Nc3ccccc3)nc2c1`, the IC50 was > 100 µM (inactive) in experiment [1], > 100 µM (inactive) in [2], 29.7 µM (active) at Caspase-3 and 9.19 µM (active) in [3].
Take `CCOc1ccc(S(=O)(=O)NN)cc1`: the EC50 in experiment [5] is 23.9 µM (inactive); in experiment [6], > 99 µM (inactive).
`CCCNC(=O)Cn1c(=O)/c(=C\c2ccc(-c3cccc([N+](=O)[O-])c3)o2)s/c1=C\C(=O)C(C)(C)C`: the EC50 in [5] was > 99 µM (inactive); in experiment [6], > 99 µM (inactive); in [7] it was > 53 µM (inactive).
In the case of `Cc1ccc(CN2CCN(CC(=O)N/N=C/c3ccccc3F)CC2)cc1`, the IC50 was > 100 µM (inactive) in [1], 27 µM (active) in experiment [2], 34.4 µM (active) at Caspase-3 and 14.3 µM (active) in experiment [3].
For the compound `CCn1c2ccccc2c2cc(/C=N/NC(=O)c3cc(O)cc(O)c3)ccc21`, the AC50 (commonly the concentration at which the activity in the assay is half-maximal) with HEK293 was 8.43 µM (active). The EC50 in experiment [8] is 0.749 µM (active).
